Key:
RECK gene [1] = assay: RECK expression in mouse primary hepatocytes, real-time PCR; assay type: cell-based; conditions: 1 μM; for RECK expression, fold induction relative to t=0: normalized to GAPDH, p<0.01
Method: Mouse primary hepatocytes were plated at 1.5×10^5 cells per well in 24-well plates and cultured in Williams E medium supplemented with 15 mM HEPES pH 7.4, 1% insulin-transferrin-selenium supplement, 1 nM dexamethasone, 50 U/ml penicillin, and 50 μg/ml streptomycin. Cells were treated with DMSO vehicle or with the FXR agonists, Compound A or Compound B ((E)-3-(2-chloro-4-((3-(2,6-dichlorophenyl)-5-isopropylisoxazol-4-yl)methoxy)styryl)benzoic acid). Cells were harvested at various times after treatment and RNA was prepared for real-time PCR analysis.
RECK expression levels were normalized to GAPDH and the mean level of RECK expression at t=0 was defined as 1.0.

RECK gene [2] = assay: RECK expression in liver of male LDLR deficient mice, real-time PCR of liver RNA; assay type: in vivo, mouse; conditions: Western diet, 30 mg/kg by gavage once a day for 7 days, liver RNA 4 h after final treatment, p<0.01
Method: Male LDLR deficient mice, fed a Western diet, were administered vehicle or 30 mg/kg Compound A [isopropyl 3-(3,4-difluorobenzoyl)-1,1-dimethyl-1,2,3,6-tetrahydroazepino[4,5-b]indole-5-carboxylate] by gavage once a day for 7 days. Four hours after the final treatment, mice were euthanized and real-time PCR analysis of liver RNA was performed.
RECK expression levels were normalized to GAPDH and the mean level of RECK expression in vehicle treated mice was defined as 1.0. Data are presented as the mean ± standard error of the mean (SEM). 6 mice were tested in each group.

RECK gene [3] = assay: RECK expression in liver of wildtype, FXR deficient and SHP deficient mice, real-time PCR of liver RNA; assay type: in vivo, mouse; conditions: 30 mg/kg by gavage once a day for 7 days
Method: Wildtype or FXR deficient mice on the C57B1/6 background and wildtype or SHP deficient mice on the 129 background were fed a standard chow diet. Mice were administered vehicle or 30 mg/kg Compound A by gavage once a day for 7 days. Four hours after the final treatment, mice were euthanized and real-time PCR analysis of liver RNA was performed.
RECK expression levels were normalized to GAPDH and the mean level of RECK expression in vehicle treated female C57B1/6 mice was defined as 1.0. Data are presented as the mean ±SEM. 6 mice were tested in each group. […] (p<0.01). […] (p<0.01).

RECK gene [4] = assay: Kinetics of induction of RECK expression in liver after a single dose, wildtype and FXR deficient mice; assay type: in vivo, mouse; conditions: wildtype mice, single dose 30 mg/kg by oral gavage
Method: Wildtype or FXR deficient male and female mice were administered a single dose of vehicle or 30 mg/kg Compound A by oral gavage. Mice were euthanized at various times after treatment and real-time PCR analysis of liver RNA was performed.
RECK expression levels were normalized to GAPDH, and the mean level of RECK expression at t=0 was defined as 1.0. […] The kinetics of induction of RECK expression by Compound A are consistent with direct induction of RECK expression by FXR activation.

RECK gene [5] = assay: RECK expression in human hepatocytes, real-time PCR; assay type: cell-based; conditions: 1 μM, 24 hours of treatment, p<0.05
Method: Confluent monolayers of human hepatocytes in 24-well plates, cultured in InVitroGRO HI medium, were treated with DMSO vehicle or Compound A. After 24 hours of treatment, the cells were harvested and RNA was prepared for real time PCR analysis.
RECK expression was normalized to GAPDH, and the mean level of RECK expression in DMSO treated cells was defined as 1.0. The data are presented as the mean ± SEM from triplicate determinations.

SMILES	Time of peak RECK expression following treatment (RECK gene [1])	RECK expression, fold induction relative to t=0 (RECK gene [1])	RECK expression (normalized to GAPDH, vehicle = 1.0) (RECK gene [2])	RECK expression (normalized to GAPDH) (RECK gene [3]; FXR deficient mice (C57B1/6 background))	RECK expression (normalized to GAPDH) (RECK gene [3]; SHP deficient mice (129 background), p=0.02 in males, p<0.01 in females)	RECK expression (normalized to GAPDH) (RECK gene [3]; male and female wildtype C57B1/6 mice, p<0.01)	Induction of RECK expression, female compared to male (RECK gene [3]; wildtype 129 mice, p<0.01)	Induction of RECK expression, female compared to male (RECK gene [3]; wildtype C57B1/6 mice)	RECK expression, fold induction relative to t=0 (RECK gene [4]; liver RNA)	Time after administration at which induction of RECK expression was observed (RECK gene [4]; expression continued to increase at later time points, p<0.01)	RECK expression (normalized to GAPDH, DMSO = 1.0) (RECK gene [5])
CC(C)c1onc(-c2c(Cl)cccc2Cl)c1COc1ccc(/C=C/c2cccc(C(=O)O)c2)c(Cl)c1 [Compound B, (E)-3-(2-chloro-4-((3-(2,6-dichlorophenyl)-5-isopropylisoxazol-4-yl)methoxy)styryl)benzoic acid, reference compound]	4 h	induced RECK expression	–	–	–	–	–	–	–	–	–
CC(C)OC(=O)C1=CN(C(=O)c2ccc(F)c(F)c2)CC(C)(C)c2c1[nH]c1ccccc21 [Compound A, isopropyl 3-(3,4-difluorobenzoyl)-1,1-dimethyl-1,2,3,6-tetrahydroazepino[4,5-b]indole-5-carboxylate]	4 h	induced RECK expression	RECK expression is induced	failed to induce RECK expression	induction of RECK expression was observed	induced expression of the RECK gene	enhanced compared to male 129 mice	Enhanced induction of RECK expression was observed in female compared to male	induced RECK expression	≤ 2 h	induced expression of the RECK gene
